Test results as given in US8415469B2, “Compounds and methods for kinase modulation, and indications therefor” (Plexxikon Inc., priority 2005, dated 2013).

Experiments:
Format in all cases: biochemical
Ret = biological target: T1, Ret (Homo sapiens, UniProt P07949); assay: AlphaScreen kinase assay, Ret; details: read-out: IC50, activity toward kinase Ret
T1 construct: P1378.pET-SF BI-PTP RET H661-R1012 HIS; made in house
T1 sequence (P07949 with tags, fused parts or gaps): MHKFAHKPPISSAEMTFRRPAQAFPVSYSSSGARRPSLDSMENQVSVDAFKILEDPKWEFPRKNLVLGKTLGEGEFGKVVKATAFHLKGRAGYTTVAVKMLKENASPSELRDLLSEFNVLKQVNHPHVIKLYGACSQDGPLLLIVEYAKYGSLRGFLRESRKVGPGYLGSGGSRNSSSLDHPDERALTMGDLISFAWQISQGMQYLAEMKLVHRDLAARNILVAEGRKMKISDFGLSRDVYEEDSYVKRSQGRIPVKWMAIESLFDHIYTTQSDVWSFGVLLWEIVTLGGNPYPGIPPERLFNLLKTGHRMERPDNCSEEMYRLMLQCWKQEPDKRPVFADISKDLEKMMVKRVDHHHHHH

FGFR1 = biological target: T2, FGFR1 (Homo sapiens, UniProt P11362, C488A/C584S); assay: AlphaScreen kinase assay, FGFR1; details: read-out: IC50, activity toward kinase FGFR
T2 construct: P1351.pET N6 BI-PTP FGFR A458-E765-X C488A, C584S; made in house; host or cells: E. coli (PTP1B co-expressed)

B-Raf = biological target: T3, B-Raf (Homo sapiens, UniProt P15056); assay: AlphaScreen kinase assay, B-Raf; details: read-out: IC50, activity toward kinase B-Raf
T3 construct: purchased Upstate Biotechnology

c-Raf-1 = biological target: T4, c-Raf-1 (Homo sapiens, UniProt P04049); assay: AlphaScreen kinase assay, c-Raf-1; details: read-out: IC50, activity toward kinase c-Raf-1
T4 construct: purchased Upstate Biotechnology

B-Raf V600E = biological target: T5, B-Raf V600E (Homo sapiens, UniProt P15056, V600E); assay: AlphaScreen kinase assay, B-Raf V600E; details: read-out: IC50, activity toward kinase B-Raf V600E
T5 construct: P4254. pFastBacBD-CDC37 BRAF D437-K722-X, V600E; His6 with pFastBac HT leader (TEV site) (N); made in house; host or cells: Sf9 (baculovirus; chaperone CDC37 co-expressed)

Jnk1 = biological target: T6, Jnk1 (Homo sapiens, UniProt P45983); assay: AlphaScreen kinase assay, Jnk1; details: read-out: IC50, activity toward kinase Jnk1
T6 construct: purchased Upstate Biotechnology
Source text: AlphaScreen assay was used to screen additional kinases. The assay is similarly dependent on the phosphorylation of a peptide substrate. In this assay, an antibody that recognizes phosphorylated substrate is bound to an acceptor bead. The peptide substrate is attached to biotin, which binds to a donor head that contains streptavidin. Thus phosphorylated substrate is bound by antibody and streptavidin, bringing the donor and acceptor heads into close proximity when kinase is not inhibited. The donor produces singlet oxygen which results in emission from the acceptor when they are in close proximity. Conversely, when kinase is inhibited, the donor and acceptor beads are not associated and the emission from the acceptor is reduced.
AlphaScreen assays were done using compounds dissolved in DMSO to a concentration of 20 mM. The compounds were diluted accordingly to the desired final concentrations in each sample well, using 1:3 serial dilution for a total of 8 concentration points. Plates were prepared such that each kinase reaction is 20 μl in 1× kinase buffer, 5% DMSO and 10 μM ATP. After incubation of the kinase reaction for 1 hour at room temperature, 5 μl of donor beads in stop buffer (50 mM EDTA in 1× kinase buffer) was added, the sample was mixed and incubated for 20 minutes at room temperature before adding 5 μl of acceptor beads in stop buffer. The samples were incubated for 60 minutes at room temperature and the signal per well was read on AlphaQuest reader.

Flt1 = biological target: T7, Flt1 (Homo sapiens, UniProt P17948); assay: AlphaScreen kinase assay, Flt1; details: read-out: IC50, activity toward kinase Flt1
T7 construct: P1826.pETN6 BI-PTP FLT1 M799-D1165-X WT; His6 (N); made in house; host or cells: E. coli (PTP1B co-expressed)
T7 sequence (P17948 with tags, fused parts or gaps): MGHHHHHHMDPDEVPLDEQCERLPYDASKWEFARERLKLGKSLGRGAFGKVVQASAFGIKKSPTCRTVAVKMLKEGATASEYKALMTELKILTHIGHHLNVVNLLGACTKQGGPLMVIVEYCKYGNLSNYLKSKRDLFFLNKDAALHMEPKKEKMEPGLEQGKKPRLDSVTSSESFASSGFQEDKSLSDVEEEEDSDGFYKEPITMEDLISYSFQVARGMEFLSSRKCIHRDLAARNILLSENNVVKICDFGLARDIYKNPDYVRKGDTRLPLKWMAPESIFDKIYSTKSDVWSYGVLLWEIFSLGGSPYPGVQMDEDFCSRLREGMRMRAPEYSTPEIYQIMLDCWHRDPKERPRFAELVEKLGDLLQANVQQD

Kit = biological target: T8, Kit (Homo sapiens, UniProt P10721); assay: AlphaScreen kinase assay, Kit; details: read-out: IC50, activity toward kinase Kit
T8 construct: P1332.N6 BI PTP KIT M552-K948-X COD; His6 (N); made in house; host or cells: E. coli (PTP1B co-expressed)

Fms = biological target: T9, Fms (Homo sapiens, UniProt P07333); assay: AlphaScreen kinase assay, Fms; details: read-out: IC50, activity toward kinase Fms
T9 construct: purchased Upstate Biotechnology

Jnk3 = biological target: T10, Jnk3 (Homo sapiens, UniProt P53779); assay: AlphaScreen kinase assay, Jnk3; details: read-out: IC50, activity toward kinase Jnk3
T10 construct: purchased Upstate Biotechnology

Measured: IC50

T2 sequence (P11362 458-765 C488A/C584S): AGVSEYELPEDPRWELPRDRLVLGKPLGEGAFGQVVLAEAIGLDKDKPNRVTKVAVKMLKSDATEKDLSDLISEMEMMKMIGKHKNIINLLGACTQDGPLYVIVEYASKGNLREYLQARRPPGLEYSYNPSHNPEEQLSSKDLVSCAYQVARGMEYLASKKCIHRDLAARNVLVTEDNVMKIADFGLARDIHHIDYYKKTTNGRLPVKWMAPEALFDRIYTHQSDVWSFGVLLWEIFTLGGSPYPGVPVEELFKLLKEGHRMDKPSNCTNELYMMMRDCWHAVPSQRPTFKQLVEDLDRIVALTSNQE
T10 sequence (P53779 whole entry): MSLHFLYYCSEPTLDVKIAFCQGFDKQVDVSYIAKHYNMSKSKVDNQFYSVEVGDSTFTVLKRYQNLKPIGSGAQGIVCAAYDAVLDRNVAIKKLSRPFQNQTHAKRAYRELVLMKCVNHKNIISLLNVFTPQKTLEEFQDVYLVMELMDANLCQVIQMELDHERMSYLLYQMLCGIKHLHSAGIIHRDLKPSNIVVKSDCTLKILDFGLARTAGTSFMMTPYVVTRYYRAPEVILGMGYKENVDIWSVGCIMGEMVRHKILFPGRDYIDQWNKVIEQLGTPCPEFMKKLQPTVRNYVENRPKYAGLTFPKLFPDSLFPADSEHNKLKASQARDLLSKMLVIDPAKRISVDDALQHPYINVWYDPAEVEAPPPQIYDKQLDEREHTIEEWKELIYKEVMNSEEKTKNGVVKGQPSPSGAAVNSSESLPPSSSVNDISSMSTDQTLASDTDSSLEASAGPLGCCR
T6 sequence (P45983 whole entry): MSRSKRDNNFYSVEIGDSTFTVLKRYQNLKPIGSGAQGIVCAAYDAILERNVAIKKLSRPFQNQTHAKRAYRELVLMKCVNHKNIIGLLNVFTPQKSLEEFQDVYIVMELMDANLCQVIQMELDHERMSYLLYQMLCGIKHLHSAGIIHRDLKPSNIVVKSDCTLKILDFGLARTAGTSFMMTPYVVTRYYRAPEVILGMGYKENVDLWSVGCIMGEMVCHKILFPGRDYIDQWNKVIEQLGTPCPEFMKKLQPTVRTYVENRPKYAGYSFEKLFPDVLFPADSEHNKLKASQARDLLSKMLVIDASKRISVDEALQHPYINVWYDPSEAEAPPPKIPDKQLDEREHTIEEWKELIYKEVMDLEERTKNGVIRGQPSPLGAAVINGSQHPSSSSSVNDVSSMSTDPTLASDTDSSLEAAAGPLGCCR
T3 sequence (P15056 whole entry): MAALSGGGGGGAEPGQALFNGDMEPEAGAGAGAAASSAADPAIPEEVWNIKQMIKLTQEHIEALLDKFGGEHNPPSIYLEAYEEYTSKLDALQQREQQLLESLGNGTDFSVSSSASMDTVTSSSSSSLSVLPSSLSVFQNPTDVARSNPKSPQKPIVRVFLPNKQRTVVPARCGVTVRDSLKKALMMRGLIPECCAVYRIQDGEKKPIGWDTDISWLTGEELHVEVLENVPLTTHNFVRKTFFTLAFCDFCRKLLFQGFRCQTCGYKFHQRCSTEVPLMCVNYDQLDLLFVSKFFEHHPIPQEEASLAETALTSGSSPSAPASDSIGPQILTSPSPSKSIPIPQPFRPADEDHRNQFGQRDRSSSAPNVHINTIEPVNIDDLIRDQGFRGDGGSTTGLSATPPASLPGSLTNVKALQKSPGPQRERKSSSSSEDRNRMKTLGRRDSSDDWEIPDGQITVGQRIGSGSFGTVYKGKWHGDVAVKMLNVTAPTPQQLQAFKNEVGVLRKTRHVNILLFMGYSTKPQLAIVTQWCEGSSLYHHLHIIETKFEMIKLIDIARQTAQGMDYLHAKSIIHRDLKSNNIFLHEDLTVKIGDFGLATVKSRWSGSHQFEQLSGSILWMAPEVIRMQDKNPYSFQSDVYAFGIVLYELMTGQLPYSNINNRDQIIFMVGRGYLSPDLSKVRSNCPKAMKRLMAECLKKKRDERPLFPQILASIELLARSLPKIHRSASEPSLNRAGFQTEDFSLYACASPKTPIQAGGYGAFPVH
T9 sequence (P07333 20-972): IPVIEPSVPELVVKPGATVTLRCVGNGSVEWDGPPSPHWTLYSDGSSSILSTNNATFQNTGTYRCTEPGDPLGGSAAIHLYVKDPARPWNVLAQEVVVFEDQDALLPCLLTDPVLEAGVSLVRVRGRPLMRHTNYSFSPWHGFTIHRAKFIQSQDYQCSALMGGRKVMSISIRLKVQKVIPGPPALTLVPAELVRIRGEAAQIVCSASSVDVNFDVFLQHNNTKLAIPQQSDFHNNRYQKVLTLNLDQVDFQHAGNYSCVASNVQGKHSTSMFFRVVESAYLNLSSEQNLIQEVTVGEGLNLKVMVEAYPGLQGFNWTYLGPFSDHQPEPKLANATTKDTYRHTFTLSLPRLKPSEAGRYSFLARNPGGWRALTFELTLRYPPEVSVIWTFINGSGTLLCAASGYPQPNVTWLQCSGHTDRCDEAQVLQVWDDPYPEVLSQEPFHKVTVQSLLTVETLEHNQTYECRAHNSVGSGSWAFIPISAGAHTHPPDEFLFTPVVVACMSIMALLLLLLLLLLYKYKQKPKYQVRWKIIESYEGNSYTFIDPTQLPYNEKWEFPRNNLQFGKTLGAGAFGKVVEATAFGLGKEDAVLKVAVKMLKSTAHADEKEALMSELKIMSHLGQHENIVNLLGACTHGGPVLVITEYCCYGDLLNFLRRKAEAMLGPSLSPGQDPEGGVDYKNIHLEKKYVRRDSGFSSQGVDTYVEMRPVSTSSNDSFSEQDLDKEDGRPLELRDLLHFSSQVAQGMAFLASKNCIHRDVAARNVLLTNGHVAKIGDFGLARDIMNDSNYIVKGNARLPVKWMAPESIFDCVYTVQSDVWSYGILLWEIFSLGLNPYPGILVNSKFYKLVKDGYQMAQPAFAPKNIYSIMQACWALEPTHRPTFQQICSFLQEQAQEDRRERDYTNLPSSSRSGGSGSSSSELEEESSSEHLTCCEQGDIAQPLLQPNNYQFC
T5 sequence (P15056 with tags, fused parts or gaps V600E): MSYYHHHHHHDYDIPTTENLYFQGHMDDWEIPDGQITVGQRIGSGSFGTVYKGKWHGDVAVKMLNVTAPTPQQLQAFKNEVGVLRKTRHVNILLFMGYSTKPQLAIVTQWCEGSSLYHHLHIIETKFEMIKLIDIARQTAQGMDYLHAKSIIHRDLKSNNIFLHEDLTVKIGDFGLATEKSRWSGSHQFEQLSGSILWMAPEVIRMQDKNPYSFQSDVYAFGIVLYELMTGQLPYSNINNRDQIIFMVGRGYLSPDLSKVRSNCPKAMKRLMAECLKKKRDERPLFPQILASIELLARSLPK
T8 sequence (P10721 with tags, fused parts or gaps): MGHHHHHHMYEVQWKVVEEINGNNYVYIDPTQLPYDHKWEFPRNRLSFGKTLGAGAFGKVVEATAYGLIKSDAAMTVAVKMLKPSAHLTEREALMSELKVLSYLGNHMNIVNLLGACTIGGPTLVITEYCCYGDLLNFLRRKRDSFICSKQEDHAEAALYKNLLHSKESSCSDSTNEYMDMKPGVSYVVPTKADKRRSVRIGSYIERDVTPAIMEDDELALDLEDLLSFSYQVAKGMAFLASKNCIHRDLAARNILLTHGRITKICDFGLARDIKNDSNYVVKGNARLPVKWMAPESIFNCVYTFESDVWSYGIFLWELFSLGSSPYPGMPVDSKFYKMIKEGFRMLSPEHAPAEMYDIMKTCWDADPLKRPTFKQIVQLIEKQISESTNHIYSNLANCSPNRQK
T4 sequence (P04049 whole entry): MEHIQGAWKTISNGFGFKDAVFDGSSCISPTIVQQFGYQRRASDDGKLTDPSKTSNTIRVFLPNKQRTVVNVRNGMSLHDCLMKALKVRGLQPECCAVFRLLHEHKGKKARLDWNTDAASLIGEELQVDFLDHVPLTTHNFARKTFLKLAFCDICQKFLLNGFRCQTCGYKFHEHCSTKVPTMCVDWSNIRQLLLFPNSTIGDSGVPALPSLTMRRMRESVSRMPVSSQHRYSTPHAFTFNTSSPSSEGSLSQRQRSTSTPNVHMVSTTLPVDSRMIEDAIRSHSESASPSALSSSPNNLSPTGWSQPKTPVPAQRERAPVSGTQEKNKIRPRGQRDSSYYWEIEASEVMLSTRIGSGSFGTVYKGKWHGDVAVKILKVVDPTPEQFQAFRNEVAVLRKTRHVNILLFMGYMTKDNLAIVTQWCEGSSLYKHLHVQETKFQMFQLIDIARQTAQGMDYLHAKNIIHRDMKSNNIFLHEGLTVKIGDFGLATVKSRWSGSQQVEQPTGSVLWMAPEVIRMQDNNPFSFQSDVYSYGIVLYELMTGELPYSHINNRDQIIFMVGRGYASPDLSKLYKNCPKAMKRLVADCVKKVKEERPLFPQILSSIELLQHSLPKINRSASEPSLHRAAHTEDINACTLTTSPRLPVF

CS(=O)(=O)Nc1cccc(-c2cnc3[nH]cc(C(=O)c4c(Cl)ccc(NS(C)(=O)=O)c4F)c3c2)c1 [Compound P-0745, N-{4-Chloro-2-fluoro-3-[5-(3-methanesulfonylamino-phenyl)-1H-pyrrolo[2,3-b]pyridine-3-carbonyl]-phenyl}-methanesulfonamide]
≤ 10 µM: Ret | FGFR1 | B-Raf | c-Raf-1 | B-Raf V600E | Jnk1

CCCS(=O)(=O)Nc1ccc(F)c(C(=O)c2c[nH]c3ncc(-c4ccc(F)cc4)cc23)c1F [Compound P-1260, Propane-1-sulfonic acid {2,4-difluoro-3-[5-(4-fluoro-phenyl)-1H-pyrrolo[2.3 b]pyridine-3-carbonyl]-phenyl}-amide]
not listed: Ret | Jnk3
≤ 10 µM: all other assays above

CN(C)c1ccc(Nc2ccc3cc[nH]c3n2)cc1 [Compound P-1356, N,N-Dimethyl-N′-(1H -pyrrolo[2,3-b]pyridin-6-yl)-benzene-1,4-diamine]
≤ 10 µM: Jnk3 | Jnk1

O=C(O)COc1ccc(F)c(Cc2c[nH]c3ncc(-c4cccnc4)cc23)c1F [Compound P-1468, [2,4-difluoro-3-(5-pyridin-3-yl-1H-pyrrolo[2,3-b]pyridin-3-ylmethyl)-phenoxy]-acetic acid]
≤ 10 µM: Flt1 | FGFR1 | Kit | Jnk3 | Fms | Jnk1

CCCCNC(=O)Nc1ccc(F)c(C(=O)c2c[nH]c3ncc(-c4cccnc4)cc23)c1 [Compound P-1534, 1-Butyl-3-[4-fluoro-3-(5-pyridin-3-yl-1H-pyrrolo[2,3-b]pyridine-3-carbonyl)-phenyl]-urea]
not listed: Ret | c-Raf-1
≤ 10 µM: all other assays above

Nc1ccc(F)c(C(=O)c2c[nH]c3ncc(-c4ccccc4)cc23)c1 [Compound P-1577]
≤ 10 µM: Flt1 | FGFR1 | B-Raf | Jnk3 | B-Raf V600E | Jnk1

O=C(O)/C=C/c1cccc(-c2cnc3[nH]cc(C(=O)c4ccc(Cl)cc4Cl)c3c2)c1 [Compound P-1585]
≤ 10 µM: Flt1 | FGFR1 | B-Raf | Jnk3 | B-Raf V600E | Jnk1

NC(=O)c1cccc(-c2cnc3[nH]cc(C(=O)c4cccc(N)c4)c3c2)c1 [Compound P-1592]
≤ 10 µM: Flt1 | FGFR1 | B-Raf | Jnk3 | B-Raf V600E | Jnk1

CCCS(=O)(=O)Nc1cccc(C(=O)c2c[nH]c3ncc(-c4ccccc4)cc23)c1C [Compound P-1610]
not listed: Ret | c-Raf-1 | Kit
≤ 10 µM: all other assays above

O=C(c1c[nH]c2ncc(-c3ccc(Cl)cc3)cc12)c1cccc2c1ccn2C(=O)NCc1ccccc1 [Compound P-1618, 4-[5-(4-Chloro-phenyl)-1H-pyrrolo[2,3-b]pyridine-3-carbonyl]-indole-1-carboxylic acid benzylamide]
≤ 10 µM: Flt1 | Jnk3 | Fms | Jnk1

CCCCN(CCCC)C(=O)n1ccc2c(C(=O)c3c[nH]c4ncc(-c5cccnc5)cc34)cccc21 [Compound P-1636, 4-(5-pyridin-3-yl-1H-pyrrolo[2,3-b]pyridine-3-carbonyl)-indole-1-carboxylic acid dibutylamide]
≤ 10 µM: B-Raf | Jnk3 | B-Raf V600E | Fms | Jnk1

O=C(Nc1cccc(C(=O)c2c[nH]c3ncccc23)c1)Nc1ccc(F)c(F)c1 [Compound P-1706, 1-(3,4-Difluoro-phenyl)-3-[3-(1H-pyrrolo[2,3-b]pyridine-3-carbonyl)-phenyl]-urea]
≤ 10 µM: B-Raf | Kit | Jnk3 | B-Raf V600E | Fms | Jnk1

COc1cccc(NC(=O)Nc2cccc(C(=O)c3c[nH]c4ncccc34)c2)c1 [Compound P-1707, 1-(3-Methoxy-phenyl)-3-[3-(1H-pyrrolo[2,3-b]pyridine-3-carbonyl)-phenyl]-urea]
≤ 10 µM: B-Raf | Kit | Jnk3 | B-Raf V600E | Fms | Jnk1

O=C(Nc1cccc(C(=O)c2c[nH]c3ncc(Cl)cc23)c1)Nc1ccon1 [Compound P-1775, 1-[3-(5-Chloro-1H-pyrrolo[2,3-b]pyridine-3-carbonyl)-phenyl]-3-isoxazol-3-yl-urea]
≤ 10 µM: B-Raf | Jnk3 | B-Raf V600E | Fms | Jnk1

CCCS(=O)(=O)Nc1ccc(F)c(C(=O)c2c[nH]c3ncc(-c4cccc(CN5CCOCC5)c4)cc23)c1F [Compound P-1878, Propane-1-sulfonic acid {2,4-difluoro-3-[5-(3-morpholin-4-ylmethyl-phenyl)-1H-pyrrolo[2,3-b]pyridine-3-carbonyl]-phenyl}-amide]
≤ 10 µM: B-Raf | Kit | c-Raf-1 | B-Raf V600E | Fms | Jnk1

CCCS(=O)(=O)Nc1ccc(F)c(C(=O)c2c[nH]c3ncc(-c4ccc(OC)nc4)cc23)c1F [Compound P-1879, Propane-1-sulfonic acid {2,4-difluoro-3-[5-(6-methoxy-pyridin-3-yl)-1H-pyrrolo[2,3-b]pyridine-3-carbonyl]-phenyl}-amide]
≤ 10 µM: B-Raf | Kit | c-Raf-1 | B-Raf V600E | Fms | Jnk1
